Values after ≈ are worked out from the molar mass of the structure shown. Like-named read-outs stand apart in the source and are kept apart here.

This is an account of results in EP2506856B1, “AMINOSTEROID COMPOUNDS FOR TOPIC LOCAL APPLICATION FOR SKIN-MUCOSA DECOLONISATION OF STAPHYLOCOCCUS AUREUS” (Assistance Publique Hôpitaux de Marseille, priority 2009, dated 2011).

The test system of assay [1] is S. aureus (souche de référence ATCC 25923). Kind of assay: Comparative mouse skin colonisation model, single application of ointment, counts at 30 minutes and 1 hour. The format is in vivo, souris. The note with it: for activité de décolonisation par rapport à la squalamine et analogues: comparative ointments, 30 minutes and 1 hour. The method, then: On a également utilisé à fin de comparaisons une pommade à base de mupirocine (Bactroban®), d'acide fusidique (Fucidine®) ou de vancomycine et vaseline à titre de contrôle dans les mêmes conditions expérimentales. Ainsi, 10 µl d'une suspension bactérienne calibrée à 10^6 CFU/ml S. aureus a été appliquée sur la peau préalablement rasée d'une série de 6 souris sur deux quadrants différents (figure 4). Après 2 heures d'incubation et séchage, la pommade a été appliquée sur un des deux quadrants de peau contre une pommade contenant l'excipient seul sur l'autre quadrant. Les quantités de S. aureus, au temps 0 (avant application de la pommade) puis après 30 minutes et 1 heure d'application, ont été déterminées par écouvillonnage cutané et mise en culture sur milieu Chapman pour le dénombrement des colonies comme décrit précédemment.

Another assay concerns S. aureus ATCC 25923. Kind of assay: MIC (CMI) determination on reference strain. Format: cell-based, Staphylococcus aureus. The method, then: Les composés IIIa et IIIb (selon l'invention) avec R=-(CH2)n1-NHZ et n1=2 à 9 présentent une CMI de 2,5 à 20 µg/ml. Tableau 1 : CMI des dérivés III-a sur S. aureus ATCC 25923
(§1) Le composé III-1 présente la meilleure activité avec une CMI de 1µg/ml pour S. Aureus. Tableau 2 : CMI de la squalamine Ia et des dérivés II-1 et III-1 sur différentes souches de S. aureus.

In assay [2] the test system is Staphylococcus aureus (MRSA). The assay can be described thus: MIC (CMI) determination on MRSA strain. Conditions: read-out: CMI. The format is cell-based. The method, then: as §1
In assay [3] the test system is différentes souches de S. aureus (y compris des souches résistantes à la méticilline (MRSA)). Conditions: different S. aureus strains including MRSA; cited from earlier work.
Assay [4] relates to S. aureus (souche de référence ATCC 25923). The assay can be described thus: Mouse skin colonisation model, single application of 1% ointment, counts at day 1 and day 2. The format is in vivo, souris. The note with it: figure 4, from environ 10^6 CFU/ml at J0.
Method: Afin de tester l'activité in vivo des composés, on a inventé un modèle expérimental de colonisation cutanéo-muqueuse à S. aureus chez la souris. […] Brièvement, 10 µl d'une suspension bactérienne calibrée à 10^8 CFU/ml S. aureus a été appliquée sur la peau préalablement rasée des souris sur deux quadrants différents (figure 3). La colonisation par S. aureus était ensuite suivie quotidiennement pendant 2 jours par écouvillonnage cutané des souris, reprise de l'écouvillon dans 1 ml d'eau stérile et mise en culture de 100 µl sur gélose Chapman à 37°C pendant 24 heures avant énumération des colonies bactériennes.
De la même manière, 10 µl d'une suspension bactérienne calibrée à 10^8 CFU/ml S. aureus a été appliquée sur la peau préalablement rasée d'une série de 4 souris sur deux quadrants différents (figure 3). […] Les quantités de S. aureus, au temps 0 (avant application de la pommade) puis aux jours 1 et 2 (J1 et J2) après application, ont été déterminées par écouvillonnage cutané et mise en culture sur milieu Chapman pour le dénombrement des colonies comme décrit précédemment.
In another assay the test system is Staphylococcus aureus. The note with it: 1% ointment, 2 fois/jour for 48 heures before surgery, fosses nasales; cited from earlier work.
The subject of a further assay is Staphylococcus. The note with it: au bout de 24 heures; cited from earlier work.
Setting [5] is: Staphylococcus aureus, ATCC25923, dérivés III-a, R=-(CH2)n1-NH2, S. aureus ATCC 25923, read-out: CMI.
[6] abbreviates: from environ 2.10^4 CFU/ml at t=0, single application of 1% ointment.
Where [7] appears, read: Staphylococcus aureus, ATCC25923, read-out: CMI.

As to `CN[C@H](CC(C)C)C(=O)N[C@H]1C(=O)N[C@@H](CC(N)=O)C(=O)N[C@H]2C(=O)N[C@H]3C(=O)N[C@H](C(=O)N[C@H](C(=O)O)c4cc(O)cc(O)c4-c4cc3ccc4O)[C@H](O)c3ccc(c(Cl)c3)Oc3cc2cc(c3O[C@@H]2O[C@H](CO)[C@@H](O)[C@H](O)[C@H]2O[C@H]2C[C@](C)(N)[C@H](O)[C@H](C)O2)Oc2ccc(cc2Cl)[C@H]1O` [vancomycine], the “activité de décolonisation par rapport à la squalamine et analogues” value in assay [1] is reported as “activité nettement moindre et moins rapide”. In the case of `C[C@H](NCCCCCCCCCN)[C@H]1CC[C@H]2[C@@H]3CCC4=C[C@@H](NCCCCCCCCCN)CC[C@]4(C)[C@H]3CC[C@]12C` [III-a n1=9], the MIC in the assay with S. aureus ATCC 25923 (setting [5]) was 5 µg/mL (≈ 8.35 µM). Turning to `CC(C)CCC[C@@H](C)[C@H]1CC[C@H]2[C@@H]3[C@@H](NCCCCN)C=C4C[C@@H](O)CC[C@]4(C)[C@H]3CC[C@]12C` [II-1, 7β-(1,4-diaminobutane)-cholest-5-ene-3β-ol], the MIC in assay [2] (Staphylococcus aureus, MRSA) was determined as 2 µg/mL (≈ 4.23 µM); in the assay on S. aureus ATCC 25923 (setting [7]) it was 2 µg/mL (≈ 4.23 µM). In addition, in assay [1] (expected from the 60 minute result), the “décolonisation escomptée en moins de 24 heures” value is ≥ 99,90%. In assay [1] (setting [6]), the “concentration au bout de 60 minutes” value worked out at 55 CFU/ml. For the same compound, the CMI in assay [3] is 2 µg/mL.

For `C[C@H](NCCCCCN)[C@H]1CC[C@H]2[C@@H]3CCC4=C[C@@H](NCCCCCN)CC[C@]4(C)[C@H]3CC[C@]12C` [III-a n1=5], the MIC in the assay on S. aureus ATCC 25923 (setting [5]) was 5 µg/mL (≈ 10.3 µM).

In the case of `CC(=O)O[C@H]1C[C@@]2(C)[C@@H](C[C@@H](O)[C@H]3[C@@]4(C)CC[C@@H](O)[C@@H](C)[C@@H]4CC[C@@]32C)/C1=C(\CCC=C(C)C)C(=O)O` [acide fusidique], the “activité de décolonisation par rapport à la squalamine et analogues” value in assay [1] is recorded as “activité nettement moindre et moins rapide”. Regarding `CC(C)[C@@H](CC[C@@H](C)[C@H]1CC[C@H]2[C@@H]3[C@H](O)C[C@H]4C[C@@H](NCCCNCCCCN)CC[C@]4(C)[C@H]3CC[C@]12C)OS(=O)(=O)O` [Ia, squalamine], the MIC in assay [2] (Staphylococcus aureus (MRSA)) is 2 µg/mL (≈ 3.18 µM). Moreover, in assay [1] (1% ointment, single application, figure 6), the “diminution du nombre de CFU/ml après 1 heure” value amounted to 4 logarithmes. Besides, the “concentration à t=30 minutes” value in assay [1] (setting [6]) is listed as below 1 CFU/ml. Besides, in assay [3], the CMI is 2 µg/mL. Moreover, in assay [4], the “concentration en bactéries Staphylococcus aureus à J1” value is reported as 10^2 CFU/ml and the “concentration en bactéries Staphylococcus aureus à J2” value is ~10^1 CFU/ml. The MIC in the assay on S. aureus ATCC 25923 (ATCC25923, Staphylococcus aureus ATCC 25923, read-out: CMI) came out at 2 µg/mL (≈ 3.18 µM). As to `C[C@H](NCCCCCCN)[C@H]1CC[C@H]2[C@@H]3CCC4=C[C@@H](NCCCCCCN)CC[C@]4(C)[C@H]3CC[C@]12C` [III-a n1=6], in the assay on S. aureus ATCC 25923 (setting [5]), the MIC was 2.5 µg/mL (≈ 4.86 µM). `C[C@H](NCCN)[C@H]1CC[C@H]2[C@@H]3CCC4=C[C@@H](NCCN)CC[C@]4(C)[C@H]3CC[C@]12C` [III-a n1=2]: the MIC in the assay on S. aureus ATCC 25923 (setting [5]) is 20 µg/mL (≈ 49.7 µM). The same measure, in the same setting: under `C[C@H](NCCCN)[C@H]1CC[C@H]2[C@@H]3CCC4=C[C@@H](NCCCN)CC[C@]4(C)[C@H]3CC[C@]12C` [III-a n1=3] stands 5 µg/mL (≈ 11.6 µM); under `C[C@H](NCCCCCCCCN)[C@H]1CC[C@H]2[C@@H]3CCC4=C[C@@H](NCCCCCCCCN)CC[C@]4(C)[C@H]3CC[C@]12C` [III-a n1=8], 2.5 µg/mL (≈ 4.38 µM). On to `C[C@H](NCCCCCCCN)[C@H]1CC[C@H]2[C@@H]3CCC4=C[C@@H](NCCCCCCCN)CC[C@]4(C)[C@H]3CC[C@]12C` [III-a n1=7], for which, in the assay with S. aureus ATCC 25923 (setting [7]), the MIC was found to be 2.5 µg/mL (≈ 4.6 µM). Regarding `C/C(=C\C(=O)OCCCCCCCCC(=O)O)C[C@@H]1OC[C@H](C[C@@H]2O[C@H]2[C@@H](C)[C@H](C)O)[C@@H](O)[C@H]1O` [mupirocine], the “décolonisation des bactéries Staphylococcus aureus” value in the assay with Staphylococcus aureus was 99,9%. For the same compound, the “activité de décolonisation par rapport à la squalamine et analogues” value in assay [1] is listed as “activité nettement moindre et moins rapide”. Moreover, the “division de la concentration de bactéries Staphylococcus” value in the assay on Staphylococcus is on record as 5.10^2 CFU/ml. As for `C[C@H](NCCCCN)[C@H]1CC[C@H]2[C@@H]3CCC4=C[C@@H](NCCCCN)CC[C@]4(C)[C@H]3CC[C@]12C` [III-a n1=4], the MIC in the assay on S. aureus ATCC 25923 (setting [7]) amounted to 5 µg/mL (≈ 10.9 µM).
